Reference: ChEMBL document CHEMBL3046561, “Feeding deterrents from Dictamnus dasycarpus Turcz against two stored-product insects” (J Agric Food Chem, 2002)

Columns and labels:
Type in all cases: functional, organism-based
[1] = system: Sitophilus zeamais; assay: Antifeedant activity against adult of Sitophilus zeamais after 3 days
[2] = system: Tribolium castaneum; assay: Antifeedant activity against adult of Tribolium castaneum (red flour beetle) after 3 days
[3] = system: Tribolium castaneum; assay: Antifeedant activity against larvae of Tribolium castaneum (red flour beetle) after 3 days

Row | Structure (SMILES) | EC50 [1] [ppm] | EC50 [2] [ppm] | EC50 [3] [ppm]
1 | C/C=C(\C)C(=O)O[C@H]1C[C@@H](OC(C)=O)[C@@]2(C(=O)OC)CO[C@H]3[C@@H](O)[C@@](C)([C@]45O[C@@]4(C)[C@@H]4C[C@H]5O[C@@H]5OC=C[C@@]54O)[C@H]4[C@]1(CO[C@]4(O)C(=O)OC)[C@@H]32 [AZADIRACHTIN A] | 91.7 | 57.6 | 47.9
2 | CC(=O)O[C@@H]1C[C@H](O)[C@@]23CO[C@@H](O)[C@]1(C)[C@@H]2C[C@@H](O)[C@]1(C)[C@@H]3C(=O)[C@H](OC(C)=O)[C@@]2(C)[C@H](c3ccoc3)C[C@H]3O[C@]321 [TOOSENDANIN] | 100 | 66 | 48
